We go through three molecules from patent publication US12390447B2, “Sirtuin 6 protein deacylase (SIRT6) activators” (Wisconsin Alumni Research Foundation, priority 2019, dated 2025).

In one test the target is SIRT6 (Homo sapiens, UniProt Q8N6T7). The test is described as follows: Steady-state kinetic analysis of SIRT6 deacetylation (Michaelis-Menten). Format: biochemical. To be noted: in the presence of 100 μM CL4, 50 μM TTNPB, 50 μM LPA or 50 μM LGly. The procedure:
(§1) FIGS. 1A-F illustrate the identification of novel SIRT6 activators. (1A) Compound libraries BML-2803, BML-2800, and an additional set of 178 molecules were screened at 100 μM for their ability to stimulate SIRT6 (1 μM) deacetylation of H3K9ac peptide (20 μM) in the presence of 0.5 mM NAD^+. SIRT6 activity was measured by HPLC quantification of H3K9ac and deacetylated product (inset) and fold activations relative to DMSO control were determined and compiled. (1B) Fold-activation of SIRT6 (1 μM) determined in the presence of either 0-400 μM CL4, 0-150 μM TTNPB, 0-100 μM Lysophosphatidic acid (LPA), or 0-200 μM linoleoylglycine (LGly). Maximum fold-activation and EC50 determined by sigmoidal curve fit. […] Constants Km, H3K9ac and kcat were determined by fitting data to Michaelis-Menten equation. (1D) Fold-activations of SIRT1 (0.1 μM), SIRT2 (0.2 μM), SIRT3 (1 μM), SIRT5 (2 μM), and SIRT6 (1 μM) determined in the presence of CL4 (100 μM), TTNPB (50 μM), and LPA (50 μM) relative to DMSO control against 20 μM H3K9ac peptide and 0.5 mM NAD^+. […]
FIGS. 2A-D show results characterizing SIRT6 activator CL5D. […] (2B) SIRT6 demyristoylase activity determined in the presence of 0-25 μM H3K9myr peptide, 0.5 mM NAD^+ and 5% DMSO (•), 12.5 μM CL5D (▪), 25 μM CL5D (♦), and 50 μM CL5D (▴). […]

Another test deals with T1, SIRT2 (Homo sapiens, UniProt Q8IXJ6).
T1 sequence (Q8IXJ6 1-389): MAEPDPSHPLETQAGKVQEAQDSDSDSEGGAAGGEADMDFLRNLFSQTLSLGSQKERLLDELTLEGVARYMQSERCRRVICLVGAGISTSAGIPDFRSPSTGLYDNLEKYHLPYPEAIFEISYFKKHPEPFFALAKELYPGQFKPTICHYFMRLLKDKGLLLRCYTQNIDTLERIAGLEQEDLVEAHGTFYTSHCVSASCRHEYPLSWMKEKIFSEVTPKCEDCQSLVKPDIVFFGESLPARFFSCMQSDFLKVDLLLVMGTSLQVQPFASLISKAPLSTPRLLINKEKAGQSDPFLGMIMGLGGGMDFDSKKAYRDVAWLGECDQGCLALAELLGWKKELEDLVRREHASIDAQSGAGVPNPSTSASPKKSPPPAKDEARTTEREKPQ
The test can be described thus: SIRT2 deacetylase activity against H3K9ac peptide. Format: biochemical. How it is done: as §1
All sirtuin deacylation assays were carried out at 37° C. in 20 mM potassium phosphate pH 7.5 with 0.5 mM NAD^+, 10% DMSO, and 20 μM H3K9ac or H3K9myr peptides, unless otherwise noted in legend, and quenched by the addition of 2% TFA final. […] The product and substrate peaks were quantified and ratio of these allowed for quantification of product formation. […]

Sequence of SIRT6 (Q8N6T7 whole entry): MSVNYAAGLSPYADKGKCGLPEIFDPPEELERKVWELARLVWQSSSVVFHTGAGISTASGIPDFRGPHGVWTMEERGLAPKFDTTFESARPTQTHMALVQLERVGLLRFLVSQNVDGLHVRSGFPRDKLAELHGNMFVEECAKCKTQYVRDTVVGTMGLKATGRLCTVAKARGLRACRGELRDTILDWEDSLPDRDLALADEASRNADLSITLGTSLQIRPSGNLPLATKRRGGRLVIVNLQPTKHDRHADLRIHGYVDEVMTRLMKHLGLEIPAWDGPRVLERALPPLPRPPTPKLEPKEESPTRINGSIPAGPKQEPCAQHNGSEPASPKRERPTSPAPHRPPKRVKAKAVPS

For the molecule `O=C(O)c1ccc2c(c1)C(=O)N(c1ccc(NC(=O)c3ccc(Cl)cc3Cl)c(Cl)c1)C2=O` [CL-4, 2-(3-chloro-4-(2,4-dichlorobenzamido)phenyl)-1,3-dioxoisoindoline-5-carboxylic acid], the kcat on SIRT6 is reported as 1.5 ± 0.3 s^−1 × 10^−3. The “specificity for SIRT6 over SIRT2” value at SIRT2 (CL4 100 μM, TTNPB 50 μM, LPA 50 μM) is “greater than 19 fold”. Turning to `O=C(O)c1ccc2c(c1)C(=O)N(c1ccc(N(C(=O)c3c(Cl)cc(Cl)cc3Cl)C(=O)c3c(Cl)cc(Cl)cc3Cl)c(Cl)c1)C2=O` [CL-5D, 2-(3-chloro-4-(2,4,6-trichloro-N-(2,4,6-trichlorobenzoyl)benzamido)phenyl)-1,3-dioxoisoindoline-5-carboxylic acid], the “SIRT2 deacetylase activity at high activator concentration” value on SIRT2 (400 μM compound) was “inhibited”.

For `CCCCC/C=C\C/C=C\CCCCCCCC(=O)NCC(=O)O` [N-Linoleoylglycine, linoleoyl-glycine, reference compound], at SIRT6, the kcat turned out to be 2.8 ± 0.1 s^−1 × 10^−3.
